From patent US12371430B2, “5-morpholin-4-yl-pyrazolo[4,3-b]pyridine derivatives” (Merck Patent GmbH, priority 2018, dated 2025)

How the values were obtained:
ATR/ATRIP = ATR/ATRIP (Homo sapiens (Human), UniProt Q13535); assay: ATR/ATRIP kinase assay (TR-FRET, p53 Ser15 phosphorylation); assay type: biochemical; conditions: 0.5 μM ATP, 50 nM p53
Experimental: ATR/ATRIP Kinase Assay—Measurement of ATR/ATRIP Inhibition
The IC50 value was determined by an ATR/ATRIP enzymatic assay. The assay comprises two steps: the enzymatic reaction and the detection step. First, a mixture of ATR/ATRIP protein (Ataxia Telangiectasia and Rad3-related protein/ATR interacting protein), the compound in question at different concentrations, p53 as substrate protein and adenosine triphosphate (ATP) are incubated in assay buffer. ATR phosporylates p53 at Ser15 and other residues. The amount of phosphorylated p53 is then detected using specific antibodies and the TR-FRET assay technology.
In detail: The ATR/ATRIP enzymatic assay is performed as a TR-FRET-(HTRF™, Cisbio Bioassays) based 384-well assay. In a first step, purified human recombinant ATR/ATRIP (human ATR, full length, GenBank ID: NM_001184.3, and human ATRIP, full length, GenBank ID AF451323.1, co-expressed in a mammalian cell line) is incubated in assay buffer for 15 minutes at 22° C. with test compound at different concentrations or without test compound (as a negative control). The assay buffer contains 25 mM HEPES pH 8.0, 10 mM Mg(CH3COO)2, 1 mM MnCl2, 0.1% BSA, 0.01% Brij® 35, and 5 mM dithiothreitol (DTT). An Echo 555 (Labcyte) is used for dispensing of compound solutions. Then, in a second step, purified human recombinant cmyc-tagged p53 (human p53, full length, GenBank ID: BC003596, expressed in Sf21 insect cells) and ATP are added and the reaction mixture is incubated for 25-35 minutes, typically 25 minutes, at 22° C. The pharmacologically relevant assay volume is 5 μl. The final concentrations in the assay during incubation of the reaction mixture are 0.3-0.5 nM, typically 0.3 nM, ATR/ATRIP, 50 nM p53, and 0.5 μM ATP. The enzymatic reaction is stopped by the addition of EDTA. The generation of phosphorylated p53 as a result of the ATR mediated reaction in the presence of ATP is detected by using specific antibodies [labeled with the fluorophores europium (Eu) as donor and d2 as acceptor (Cisbio Bioassays)] enabling FRET. For this purpose, 2 μl of antibody-containing stop solution (12.5 mM HEPES pH 8.0, 125 mM EDTA, 30 mM sodium chloride, 300 mM potassium fluoride, 0.006% Tween-20, 0.005% Brij® 35, 0.21 nM anti-phospho-p53(Ser15)-Eu antibody, 15 nM anti-cmyc-d2 antibody) are added to the reaction mixture. Following signal development for 2 h the plates are analyzed in an EnVision (PerkinElmer) microplate reader using the TRF mode with laser excitation. Upon excitation of the donor europium at 340 nm the emitted fluorescence light of the acceptor d2 at 665 nm as well as from the donor Eu at 615 nm are measured. The amount of phosphorylated p53 is directly proportional to the ratio of the amounts of emitted light i.e. the ratio of the relative fluorescence units (rfu) at 665 nm and 615 nm. Data are processed employing the Genedata Screener software. In particular, IC50 values are determined in the usual manner by fitting a dose-response curve to the data points using nonlinear regression analysis. • IC50=half maximal inhibitory concentration • ATP=Adenosine triphosphate • TR-FRET=Time-Resolved Fluorescence Resonance Energy Transfer • HTRF®=Homogeneous Time Resolved Fluorescence • HEPES=2-(4-(2-Hydroxyethyl)-1-piperazinyl)-ethanesulfonic acid • Mg(CH3COO)2=Magnesium acetate • MnCl2=Manganese(II)-chloride • BSA=Bovine Serum Albumin • EDTA=Ethylendiamine Tetraacetate • TRF=Time Resolved Fluorescence pCHK1 Cellular Assay

[1] = tested on: phosphorylation of Chk1 (Ser 345) in HT29 colon adenocarcinoma cells; assay: pCHK1 cellular assay; assay type: cell-based; conditions: Homo sapiens, HT-29, hydroxyurea 3 mM, 4 h
From the text: Chk1 kinase acts downstream of ATR and has a key role in DNA damage checkpoint control. Activation of Chk1 involves phosphorylation of Ser317 and Ser345 (regarded as the preferential target for phosphorylation/activation by ATR) and occurs in response to blocked DNA replication and certain forms of genotoxic stress. Phosphorylation at Ser 345 serves to localize Chk1 to the nucleus following checkpoint activation.
This assay measures a decrease in phosphorylation of Chk1 (Ser 345) in HT29 colon adenocarcinoma cells following treatment with compound and hydroxyurea (which promotes fork stalling because of dNTP depletion) and using an immunocytochemical procedure and high content imaging.
For the assay HT29 cells are plated in culture medium (DMEM high Glucose (no phenol red), 2 mM Glutamax, 1 mM Pyruvate, 10% FCS into Greiner 384 well plates, black, μclear #781090 (2500 cells/well/30 μl) and incubated for at least 20 hours at 37° C., 10% CO2 and 90% rH. Diluted test compounds (1 nM-30 μM final) and hydroxyurea (3 mM final) are added simultaneously and cells are incubated for 4 h at 37° C. After fixation/prmeabilisation with 100% MeOH (−20° C. cold) and permeabilisation with 0.2% Triton X-100 a complete immunocytochemical procedure is performed using a specific anti-pChk1 antibody (Cell Signaling, #2348BF) and fluorescently labelled secondary antibody (Alexa Fluor® 488 goat anti-rabbit F(ab′)2 fragment, Invitrogen A11070) and parallel nuclear staining for cell counting.
The nuclear localised pChk1 signal is detected on an ImageXpress Ultra confocal high content reader and reported as % positive cells (nuclei).

Sequence of ATR/ATRIP (Q13535 whole entry): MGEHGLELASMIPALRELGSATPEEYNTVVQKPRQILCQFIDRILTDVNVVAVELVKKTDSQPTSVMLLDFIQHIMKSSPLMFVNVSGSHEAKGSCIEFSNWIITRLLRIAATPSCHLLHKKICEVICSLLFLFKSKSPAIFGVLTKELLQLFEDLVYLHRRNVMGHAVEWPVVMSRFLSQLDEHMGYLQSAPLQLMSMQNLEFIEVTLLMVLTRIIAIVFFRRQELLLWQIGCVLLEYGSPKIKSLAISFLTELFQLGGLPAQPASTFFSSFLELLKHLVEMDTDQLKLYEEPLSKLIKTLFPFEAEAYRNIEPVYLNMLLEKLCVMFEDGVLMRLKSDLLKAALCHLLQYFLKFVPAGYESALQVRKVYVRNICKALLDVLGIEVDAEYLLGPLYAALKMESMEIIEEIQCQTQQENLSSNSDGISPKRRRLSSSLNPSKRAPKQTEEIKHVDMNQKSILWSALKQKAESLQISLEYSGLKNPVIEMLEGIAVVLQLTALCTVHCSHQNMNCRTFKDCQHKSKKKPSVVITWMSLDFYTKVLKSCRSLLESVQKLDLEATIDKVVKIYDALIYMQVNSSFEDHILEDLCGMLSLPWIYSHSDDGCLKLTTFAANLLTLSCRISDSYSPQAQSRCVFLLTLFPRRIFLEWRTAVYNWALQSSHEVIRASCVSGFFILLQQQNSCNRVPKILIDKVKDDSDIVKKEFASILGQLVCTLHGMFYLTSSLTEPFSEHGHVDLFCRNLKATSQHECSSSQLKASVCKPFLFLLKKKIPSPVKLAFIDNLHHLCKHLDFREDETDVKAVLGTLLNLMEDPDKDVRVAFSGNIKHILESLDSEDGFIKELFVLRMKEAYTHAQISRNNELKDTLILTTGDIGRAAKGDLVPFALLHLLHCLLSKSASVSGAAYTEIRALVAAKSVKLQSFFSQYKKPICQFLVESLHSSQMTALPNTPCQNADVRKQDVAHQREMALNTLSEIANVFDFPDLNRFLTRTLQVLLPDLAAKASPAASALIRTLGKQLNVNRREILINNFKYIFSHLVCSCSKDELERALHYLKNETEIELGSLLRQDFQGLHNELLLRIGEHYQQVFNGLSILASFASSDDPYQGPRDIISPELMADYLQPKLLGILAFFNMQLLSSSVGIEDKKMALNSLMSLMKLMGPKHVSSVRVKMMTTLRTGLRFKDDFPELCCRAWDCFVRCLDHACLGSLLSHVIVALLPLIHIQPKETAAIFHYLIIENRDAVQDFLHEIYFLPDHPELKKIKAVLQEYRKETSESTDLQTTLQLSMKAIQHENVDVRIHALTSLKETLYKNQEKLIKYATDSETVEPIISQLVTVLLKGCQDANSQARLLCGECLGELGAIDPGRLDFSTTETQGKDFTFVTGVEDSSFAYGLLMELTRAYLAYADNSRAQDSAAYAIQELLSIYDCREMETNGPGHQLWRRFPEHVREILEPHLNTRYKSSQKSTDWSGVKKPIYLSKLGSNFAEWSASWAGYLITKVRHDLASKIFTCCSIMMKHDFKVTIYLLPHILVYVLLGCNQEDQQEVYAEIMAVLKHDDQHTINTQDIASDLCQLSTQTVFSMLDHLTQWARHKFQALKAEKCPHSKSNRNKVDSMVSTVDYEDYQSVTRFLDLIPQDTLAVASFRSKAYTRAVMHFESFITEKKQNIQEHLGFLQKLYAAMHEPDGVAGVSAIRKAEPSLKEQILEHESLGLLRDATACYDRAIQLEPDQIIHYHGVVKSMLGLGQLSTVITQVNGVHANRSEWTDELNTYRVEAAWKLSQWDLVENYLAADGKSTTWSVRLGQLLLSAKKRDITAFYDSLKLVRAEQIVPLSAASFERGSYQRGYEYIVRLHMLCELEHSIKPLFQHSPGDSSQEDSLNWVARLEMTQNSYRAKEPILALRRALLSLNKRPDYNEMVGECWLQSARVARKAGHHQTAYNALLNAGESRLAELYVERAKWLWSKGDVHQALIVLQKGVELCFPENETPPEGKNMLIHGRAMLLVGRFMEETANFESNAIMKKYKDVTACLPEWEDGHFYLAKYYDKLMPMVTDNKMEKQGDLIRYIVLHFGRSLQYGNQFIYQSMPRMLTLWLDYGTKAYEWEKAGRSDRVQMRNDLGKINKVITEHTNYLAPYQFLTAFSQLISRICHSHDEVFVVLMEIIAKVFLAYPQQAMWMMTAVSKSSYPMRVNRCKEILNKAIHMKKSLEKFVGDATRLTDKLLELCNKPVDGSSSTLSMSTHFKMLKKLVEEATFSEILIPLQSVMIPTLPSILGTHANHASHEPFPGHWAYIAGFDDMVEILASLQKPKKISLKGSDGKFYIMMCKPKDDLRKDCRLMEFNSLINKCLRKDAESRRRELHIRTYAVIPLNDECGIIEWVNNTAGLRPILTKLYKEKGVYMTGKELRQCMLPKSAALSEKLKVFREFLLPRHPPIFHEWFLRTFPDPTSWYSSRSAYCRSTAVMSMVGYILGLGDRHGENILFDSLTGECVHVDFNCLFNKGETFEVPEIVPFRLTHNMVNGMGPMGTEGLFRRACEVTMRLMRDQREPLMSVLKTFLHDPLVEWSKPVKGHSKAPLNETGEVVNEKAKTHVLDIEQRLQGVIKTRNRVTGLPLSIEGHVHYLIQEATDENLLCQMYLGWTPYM
Sequence of ATR/ATRIP (Q8WXE1 whole entry partner): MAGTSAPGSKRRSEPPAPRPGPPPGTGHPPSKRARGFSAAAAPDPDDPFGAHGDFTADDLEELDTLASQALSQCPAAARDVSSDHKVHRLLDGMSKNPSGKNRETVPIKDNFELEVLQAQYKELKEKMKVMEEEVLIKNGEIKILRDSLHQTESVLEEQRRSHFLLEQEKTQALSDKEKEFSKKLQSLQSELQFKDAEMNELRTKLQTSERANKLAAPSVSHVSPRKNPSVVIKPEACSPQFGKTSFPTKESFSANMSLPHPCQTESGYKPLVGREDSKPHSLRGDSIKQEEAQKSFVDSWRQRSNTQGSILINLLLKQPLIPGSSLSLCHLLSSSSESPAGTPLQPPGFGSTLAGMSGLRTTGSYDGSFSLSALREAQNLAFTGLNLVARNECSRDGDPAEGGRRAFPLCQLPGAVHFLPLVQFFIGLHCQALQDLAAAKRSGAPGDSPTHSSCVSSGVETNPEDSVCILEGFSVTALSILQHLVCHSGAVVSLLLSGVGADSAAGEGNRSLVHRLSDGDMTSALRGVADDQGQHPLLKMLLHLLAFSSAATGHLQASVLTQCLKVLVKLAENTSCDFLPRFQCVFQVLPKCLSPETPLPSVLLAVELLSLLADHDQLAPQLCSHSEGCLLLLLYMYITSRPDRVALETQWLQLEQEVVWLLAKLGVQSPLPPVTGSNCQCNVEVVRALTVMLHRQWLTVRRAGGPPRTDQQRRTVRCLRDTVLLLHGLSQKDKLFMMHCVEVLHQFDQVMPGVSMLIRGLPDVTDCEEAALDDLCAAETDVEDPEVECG

C[C@@H]1COCCN1c1ccc2c(n1)c(-c1ccn[nH]1)nn2Cc1ccccc1 [Compound 59, (3R)-4-[1-Benzyl-3-(1H-pyrazol-5-yl)-1H-pyrazolo[4,3-b]pyridin-5-yl]-3-methylmorpholine] gave an IC50 (ATR/ATRIP) of 21 nM and an IC50 [1] of 1000 to 10000 nM.
With C[C@@H]1COCCN1c1ccc2c(n1)c(-c1cc[nH]n1)nn2CC(C)(C)O [Compound 85, 2-Methyl-1-{5-[(3R)-3-methylmorpholin-4-yl]-3-(1H-pyrazol-3-yl)-1H-pyrazolo[4,3-b]pyridin-1-yl}propan-2-ol] the IC50 (ATR/ATRIP) was 21 nM and the IC50 [1] was 1000 to 10000 nM.
C[C@@H]1COCCN1c1cc(C(N)=O)c2c(n1)c(-c1cc[nH]n1)nn2C [Compound 32, 1-Methyl-5-((R)-3-methyl-morpholin-4-yl)-3-(1H-pyrazol-3-yl)-1H-pyrazolo[4,3-b]pyridine-7-carboxylic acid amide] was tested, and the IC50 (ATR/ATRIP) was 20 nM and the IC50 [1] was 1000 to 10000 nM.
C[C@@H]1COCCN1c1ccc2c(n1)c(-c1cc[nH]n1)nn2-c1cccc(C#N)c1 [Compound 53, 3-[5-((3R)-3-Methyl-morpholin-4-yl)-3-(1H-pyrazol-3-yl)-1H-pyrazolo[4,3-b]pyridin-1-yl]-benzonitrile] showed an IC50 (ATR/ATRIP) of 58 nM and an IC50 [1] of 1000 to 10000 nM.
C[C@@H]1COCCN1c1cc(C2CC2)c2c(n1)c(-c1ccn[nH]1)nn2C [Compound 43, 7-Cyclopropyl-1-methyl-5-((R)-3-methyl-morpholin-4-yl)-3-(2H-pyrazol-3-yl)-1H-pyrazolo[4,3-b]pyridine] was tested, and the IC50 (ATR/ATRIP) was 3.9 nM and the IC50 [1] was 100 to 1000 nM.
CC(C)Oc1cc(N2CCOC[C@H]2C)nc2c(-c3ccn[nH]3)nn(C)c12 [Compound 44, 7-Isopropoxy-1-methyl-5-((R)-3-methyl-morpholin-4-yl)-3-(2H-pyrazol-3-yl)-1H-pyrazolo[4,3-b]pyridine] was tested, and the IC50 (ATR/ATRIP) was 4.2 nM and the IC50 [1] was 100 to 1000 nM.
Cc1cccnc1-c1cc(N2CCOC[C@H]2C)nc2c(-c3cc[nH]n3)n[nH]c12 [Compound 39, (3R)-3-Methyl-4-[7-(3-methylpyridin-2-yl)-3-(1H-pyrazol-3-yl)-1H-pyrazolo[4,3-b]pyridin-5-yl]morpholine] gave an IC50 (ATR/ATRIP) of 7.9 nM and an IC50 [1] of 100 to 1000 nM.
Compound Cc1ncncc1-c1cc(N2CCOC[C@H]2C)nc2c(-c3cc[nH]n3)nn(C)c12 [Compound 87, (3R)-3-Methyl-4-[1-methyl-7-(4-methylpyrimidin-5-yl)-3-(1H-pyrazol-3-yl)-1H-pyrazolo[4,3-b]pyridin-5-yl]morpholine] has an IC50 (ATR/ATRIP) of 0.4 nM and an IC50 [1] of 10 to 100 nM.
Work on Cc1nc([S@+](C)[O-])ccc1-c1cc(N2CCOC[C@H]2C)nc2c(-c3cc[nH]n3)nn(C)c12 [Compound 9, (3R)-4-(7-{6-[(S)-Methanesulfinyl]-2-methylpyridin-3-yl}-1-methyl-3-(1H-pyrazol-3-yl)-1H-pyrazolo[4,3-b]pyridin-5-yl)-3-methylmorpholine] yielded an IC50 (ATR/ATRIP) of 4.1 nM and an IC50 [1] of 10 to 100 nM.
With C[C@@H]1COCCN1c1ccc2c(n1)c(-c1cc[nH]n1)nn2CCc1ccccc1 [Compound 64, 5-((R)-3-Methyl-morpholin-4-yl)-1-phenethyl-3-(1H-pyrazol-3-yl)-1H-pyrazolo[4,3-b]pyridine] the IC50 (ATR/ATRIP) was 51 nM and the IC50 [1] was 1000 to 10000 nM.
CC(C)n1nc(-c2cc[nH]n2)c2nc(N3CCOC[C@H]3C)cc(-c3ccc(S(C)(=O)=O)cc3)c21 [Compound 41, (3R)-4-[7-(4-Methanesulfonylphenyl)-1-(propan-2-yl)-3-(1H-pyrazol-3-yl)-1H-pyrazolo[4,3-b]pyridin-5-yl]-3-methylmorpholine] gave an IC50 (ATR/ATRIP) of 1.3 nM and an IC50 [1] of 10 to 100 nM.
In the case of Cc1cccc(-c2cc(N3CCOC[C@H]3C)nc3c(-c4cc[nH]n4)nn(C)c23)n1 [Compound 33, 1-Methyl-5-((R)-3-methyl-morpholin-4-yl)-7-(6-methyl-pyridin-2-yl)-3-(1H-pyrazol-3-yl)-1H-pyrazolo[4,3-b]pyridine], the IC50 (ATR/ATRIP) is reported as 16 nM and the IC50 [1] is reported as 100 to 1000 nM.
Compound C[C@@H]1COCCN1c1ccc2c(n1)c(-c1cc[nH]n1)nn2C(C)(C)CO [Compound 86, 2-Methyl-2-{5-[(3R)-3-methylmorpholin-4-yl]-3-(1H-pyrazol-3-yl)-1H-pyrazolo[4,3-b]pyridin-1-yl}propan-1-ol] has an IC50 (ATR/ATRIP) of 24 nM and an IC50 [1] of 1000 to 10000 nM.
CC(c1cc(N2CCOC[C@H]2C)nc2c(-c3cc[nH]n3)nn(C)c12)S(C)(=O)=O (stereo partly drawn) [Compound 89, (3R)-4-[7-(1-Methanesulfonylethyl)-1-methyl-3-(1H-pyrazol-3-yl)-1H-pyrazolo[4,3-b]pyridin-5-yl]-3-methylmorpholine] gave an IC50 (ATR/ATRIP) of 0.9 nM and an IC50 [1] of 1000 to 10000 nM.
C[C@@H]1COCCN1c1cc(CO)c2c(n1)c(-c1cc[nH]n1)nn2C [Compound 24, [1-Methyl-5-((R)-3-methyl-morpholin-4-yl)-3-(1H-pyrazol-3-yl)-1H-pyrazolo[4,3-b]pyridin-7-yl]-methanol] gave an IC50 (ATR/ATRIP) of 28 nM and an IC50 [1] of 100 to 1000 nM.
C[C@@H]1COCCN1c1cc(C(N)=O)c2[nH]nc(-c3cc[nH]n3)c2n1 [Compound 29, 5-((R)-3-Methyl-morpholin-4-yl)-3-(1H-pyrazol-3-yl)-1H-pyrazolo[4,3-b]pyridine-7-carboxylic acid amide] gave an IC50 (ATR/ATRIP) of 5.4 nM and an IC50 [1] of 1000 to 10000 nM.
Compound C[C@@H]1COCCN1c1cc(-c2ccc(S(C)(=N)=O)cc2)c2c(n1)c(-c1cc[nH]n1)nn2C (stereo partly drawn) [Compound 6, Imino(methyl)(4-{1-methyl-5-[(3R)-3-methylmorpholin-4-yl]-3-(1H-pyrazol-3-yl)-1H-pyrazolo[4,3-b]pyridin-7-yl}phenyl)-lambda6-sulfanone] has an IC50 (ATR/ATRIP) of 8.9 nM and an IC50 [1] of 100 to 1000 nM.
C[C@@H]1COCCN1c1cc(-c2ccccn2)c2[nH]nc(-c3cc[nH]n3)c2n1 [Compound 38, (3R)-3-Methyl-4-[3-(1H-pyrazol-3-yl)-7-(pyridin-2-yl)-1H-pyrazolo[4,3-b]pyridin-5-yl]morpholine] gave an IC50 (ATR/ATRIP) of 4.3 nM and an IC50 [1] of 100 to 1000 nM.
Cc1ccnc(C)c1-c1cc(N2CCOC[C@H]2C)nc2c(-c3cc[nH]n3)nn(C)c12 [Compound 22, 7-(2,4-Dimethyl-pyridin-3-yl)-1-methyl-5-((R)-3-methyl-morpholin-4-yl)-3-(1H-pyrazol-3-yl)-1H-pyrazolo[4,3-b]pyridine] was tested, and the IC50 (ATR/ATRIP) was 3.3 nM and the IC50 [1] was 100 to 1000 nM.
